Measured values taken from patent US6342504B1, “Aromatic heterocyclic derivatives as enzyme inhibitors” (priority 1994, dated 2002).

Tested on: FeCl3-induced occlusive thrombus in rat carotid artery
Assay: Rat model of FeCl3-induced platelet-dependent arterial thrombosis
Type: in vivo
Description: Rat Model of FeCl3-induced Platelet-dependent Arterial Thrombosis
Kurz, K. D., Main, B. W., and Sandusky, G. E., Thromb. […] In this model a platelet-rich, occlusive thrombus is formed in a segment of the rat carotid artery treated locally with a fresh solution of FeCl3 absorbed to a piece of filter paper. The FeCl3 is thought to diffuse into the treated segment of artery and cause de-endothelialization of the affected vessel surface. […] The effect of a test compound on the incidence of occlusive thrombus formation following the application of the FeCl3 is monitored by ultrasonic flowtometry and is used as the primary end point. The use of flowtometry to measure carotid artery blood flow, is a modification of the original procedure in which thermal detection of clot formation was employed. Kurz, K. D., Main, B. W., and Sandusky, G. E., Thromb.
Male Harlan Sprague Dawley rats (420-450 g) were acclimated at least 72 hours prior to use and fasted for 12 hours prior to surgery with free access to water. The animals were prepared, anesthetized with Nembutal followed by the insertion of catheters for blood pressure monitoring, drug and anesthesia delivery. The left carotid artery was isolated by making a midline cervical incision followed by blunt dissection and spreading techniques to separate a 2 cm segment of the vessel from the carotid sheath. A silk suture is inserted under the proximal and distal ends of the isolated vessel to provide clearance for the placement of a ultrasonic flow probe (Transonic) around the proximal end of the vessel. The probe is then secured with a stationary arm.
The test compound was administered as a single intravenous bolus at the doses outlined in Table 4 after placement of the flow probe and 5 minutes prior to the thrombogenic stimulus. At t=0, a 3 mm diameter piece of filter paper (Whatman #3) soaked with 10 microliters of a 35% solution of fresh FeCl3 (made up in water) was applied the segment of isolated carotid artery distal to the flow probe. Blood pressure, blood flow, heart rate, and respiration were monitored for 60 minutes.
The incidence of occlusion (defined as the attainment of zero blood flow) was recorded as the primary end point.
This allows a direct comparison of the antithrombotic efficacy of [3-[(benzylsulfonyl)amino]-2-oxo-1,2-dihydropyridyl]acetyl-L-argininal, with other antithrombotic agents which have also been evaluated in this model as described above. Table 5 lists the ED50 values for several well known anticoagulant agents in this model compared to [3-[(benzylsulfonyl)amino]-2-oxo-1,2-dihydropyridyl]acetyl-L-argininal.

## Hirulog ™ [reference compound]
FeCl3 model of arterial thrombosis in rats
  ED50 for thrombus prevention (dose that prevents complete thrombotic occlusion in 50% of animals): 3.0 mg/kg

## CC1CNc2c(cccc2S(=O)(=O)N[C@@H](CCCNC(=N)N)C(=O)N2CC[C@@H](C)C[C@@H]2C(=O)O)C1 (stereo partly drawn) [Argatroban, 2R,4R-4-methyl-1-[N-2-(3-methyl-1,2,3,4-tetrahydro-8-quinolinesulfonyl)-L-argininal]-2-piperdinecarboxylic acid, reference compound]
Rattus norvegicus, read-out: ED50 for thrombus prevention (dose that prevents complete thrombotic occlusion in 50% of animals)
  ED50: 3.8 mg/kg
